Source: patent US7186354B2, “Anticorrosive treating concentrate” (NEC Electronics Corporation, priority 2000, dated 2007)

Test: solubility of BTA in water (FIG. 1)
Format: physicochemical

For `c1ccc2[nH]nnc2c1` [BTA, benzotriazole], the “solubility of BTA in water” value (10° C.) was “about 1%”, the “solubility of BTA in water” value (20° C.) was “about 1.9%” and the “solubility of BTA in water” value (30° C.) was “about 4%”. For the same compound, the “solubility of BTA in water” value (80° C.) was “about 8%” and the solubility in water (water of 20° C.) was “about 1.9 wt-%”.
